Test results published in US6753345B2, “7-hexanolytaxol and methods for preparing the same” (Hauser, Inc., priority 1998, dated 2004).

Legend:
[1] = test system: CAKI-1; experiment: SRB cytotoxicity screening assay (Renal Cancer)
[2] = test system: MAXF 401; experiment: SRB cytotoxicity screening assay (Breast Cancer); format: cell-based; conditions: MAXF 401 (Breast Cancer), 48 hour incubation
[3] = test system: MDA-MB-468; experiment: SRB cytotoxicity screening assay (Breast Cancer)
[4] = test system: SK-MEL-5; experiment: SRB cytotoxicity screening assay (Melanoma)
[5] = test system: MDR+ cell line; experiment: Multidrug resistant cell line screening (MDR ratio); format: cell-based
From the text: The compound of the present invention was further tested on multidrug resistant cell lines. The resistance of cancer cells to multiple chemotherapeutic drugs which are structurally unrelated has been termed “multidrug resistance.” In the past several years, several mechanisms of multidrug resistance have been described, including the expression of a cell surface multidrug efflux pump (P-glycoprotein or the multidrug transporter), altered glutathione metabolism, reduced activity of topoisomerase II, and various less clearly defined changes in cellular proteins. Because of evidence that expression of P-glycoprotein is associated with drug-resistance in cancer, P-glycoprotein has been studied extensively from the point of view of its biochemistry and mechanism of action in order to develop inhibitors which can be used clinically to reverse drug resistance of cancers in patients. The clinical significance of the other mechanisms of multidrug resistance are less well-established, but many model systems indicate that they may contribute to clinical resistance.

[6] = test system: MDA-MB-435; experiment: SRB cytotoxicity screening assay (Breast Cancer)
[7] = test system: NCI-H23; experiment: SRB cytotoxicity screening assay (Non-Small Cell Lung Cancer)
[8] = test system: MDA-N; experiment: SRB cytotoxicity screening assay (Breast Cancer)
[9] = test system: SNB-75; experiment: SRB cytotoxicity screening assay (CNS Cancer)
[10] = test system: SK-BR-3; experiment: SRB cytotoxicity screening assay (Breast Cancer)
[11] = test system: ACHN; experiment: SRB cytotoxicity screening assay (Renal Cancer)
[12] = test system: SF-268; experiment: SRB cytotoxicity screening assay (CNS Cancer)
[13] = test system: SF-295; experiment: SRB cytotoxicity screening assay (CNS Cancer)
[14] = test system: SK-OV-3; experiment: SRB cytotoxicity screening assay (Ovarian)
[15] = test system: cell line panel (60 lines, nine disease-related subpanels)
[16] = test system: CCRF-CEM; conditions: human, 48 h

For `CCCCCC(=O)O[C@H]1C[C@H]2OC[C@@]2(OC(C)=O)[C@H]2[C@H](OC(=O)c3ccccc3)[C@]3(O)C[C@H](OC(=O)[C@H](O)[C@@H](NC(=O)c4ccccc4)c4ccccc4)C(C)=C([C@@H](OC(C)=O)C(=O)[C@]12C)C3(C)C` [7-hexanoyltaxol], the “Log10 TGI” value ([1]; CAKI-1 (Renal Cancer), PG=0, 48 hour incubation) was −4.52 molar, the GI50 ([1]; Homo sapiens, CAKI-1, 48 h, read-out: Log10 GI50 (converted)) was 263 nM and the CC50 ([1]; Homo sapiens, CAKI-1, 48 h, read-out: Log10 LC50 (converted)) was over 100000 nM. The GI50 ([2]; Homo sapiens, MAXF401, PG=+50, read-out: Log10 GI50 (converted)) was under 10 nM, the “Log10 TGI” value ([2]; PG=0) was under −8.00 molar and the GI50 ([3]; Homo sapiens, MDA-MB-468, 48 h, read-out: Log10 GI50 (converted)) was under 10 nM. For the same compound, the CC50 ([3]; Homo sapiens, MDA-MB-468, 48 h, read-out: Log10 LC50 (converted)) was over 100000 nM, the “Log10 TGI” value ([3]; MDA-MB-468 (Breast Cancer), PG=0, 48 hour incubation) was −6.26 molar and the GI50 ([4]; Homo sapiens, SK-MEL-5, 48 h, read-out: Log10 GI50 (converted)) was under 10 nM. For the same compound, the CC50 ([4]; Homo sapiens, SK-MEL-5, 48 h, read-out: Log10 LC50 (converted)) was over 100000 nM, the “Log10 TGI” value ([4]; SK-MEL-5 (Melanoma), PG=0, 48 hour incubation) was −4.56 molar and the “MDR (ratio of two IC50 values, numerator is an MDR+ cell line)” value ([5]; higher numbers = less effective vs. MDR cells) was 1. For the same compound, the “effectiveness against multidrug resistant cell lines compared with paclitaxel” value ([5]; multidrug resistant cell lines) was “vastly more effective than paclitaxel”, the GI50 ([6]; Homo sapiens, MDA-MB-435, 48 h, read-out: Log10 GI50 (converted)) was under 10 nM and the CC50 ([6]; Homo sapiens, MDA-MB-435, 48 h, read-out: Log10 LC50 (converted)) was under 10 nM. The “Log10 TGI” value ([6]; MDA-MB-435 (Breast Cancer), PG=0, 48 hour incubation) was under −8.00 molar, the GI50 ([7]; Homo sapiens, NCI-H23, 48 h, read-out: Log10 GI50 (converted)) was under 10 nM and the CC50 ([7]; Homo sapiens, NCI-H23, 48 h, read-out: Log10 LC50 (converted)) was 45700 nM. The “Log10 TGI” value ([7]; NCI-H23 (Non-Small Cell Lung Cancer), PG=0, 48 hour incubation) was −4.86 molar, the GI50 ([8]; Homo sapiens, MDA-N, 48 h, read-out: Log10 GI50 (converted)) was under 10 nM and the CC50 ([8]; Homo sapiens, MDA-N, 48 h, read-out: Log10 LC50 (converted)) was under 10 nM. The “Log10 TGI” value ([8]; MDA-N (Breast Cancer), PG=0, 48 hour incubation) was under −8.00 molar, the GI50 ([9]; Homo sapiens, SNB-75, 48 h, read-out: Log10 GI50 (converted)) was under 10 nM and the CC50 ([9]; Homo sapiens, SNB-75, 48 h, read-out: Log10 LC50 (converted)) was over 100000 nM. For the same compound, the “Log10 TGI” value ([9]; SNB-75 (CNS Cancer), PG=0, 48 hour incubation) was −7.41 molar, the GI50 ([10]; Homo sapiens, SK-BR-3, 48 h, read-out: Log10 GI50 (converted)) was under 10 nM and the CC50 ([10]; Homo sapiens, SK-BR-3, 48 h, read-out: Log10 LC50 (converted)) was over 100000 nM. For the same compound, the “Log10 TGI” value ([10]; SK-BR-3 (Breast Cancer), PG=0, 48 hour incubation) was −6.04 molar, the “Log10 TGI” value ([11]; ACHN (Renal Cancer), PG=0, 48 hour incubation) was over −4.00 molar and the GI50 ([11]; Homo sapiens, ACHN, 48 h, read-out: Log10 GI50 (converted)) was 95.5 nM. The CC50 ([11]; Homo sapiens, ACHN, 48 h, read-out: Log10 LC50 (converted)) was over 100000 nM, the GI50 ([12]; Homo sapiens, SF-268, 48 h, read-out: Log10 GI50 (converted)) was under 10 nM and the CC50 ([12]; Homo sapiens, SF-268, 48 h, read-out: Log10 LC50 (converted)) was over 100000 nM. For the same compound, the “Log10 TGI” value ([12]; SF-268 (CNS Cancer), PG=0, 48 hour incubation) was −4.95 molar, the GI50 ([13]; Homo sapiens, SF-295, 48 h, read-out: Log10 GI50 (converted)) was under 10 nM and the CC50 ([13]; Homo sapiens, SF-295, 48 h, read-out: Log10 LC50 (converted)) was over 100000 nM. The “Log10 TGI” value ([13]; SF-295 (CNS Cancer), PG=0, 48 hour incubation) was −6.41 molar, the GI50 ([14]; Homo sapiens, SK-OV-3, 48 h, read-out: Log10 GI50 (converted)) was under 10 nM and the CC50 ([14]; Homo sapiens, SK-OV-3, 48 h, read-out: Log10 LC50 (converted)) was 91200 nM. For the same compound, the “Log10 TGI” value ([14]; SK-OV-3 (Ovarian), PG=0, 48 hour incubation) was −4.84 molar.
In the case of `CC(=O)O[C@H]1C(=O)[C@@]2(C)[C@H]([C@H](OC(=O)c3ccccc3)[C@]3(O)C[C@H](OC(=O)[C@H](O)[C@@H](NC(=O)c4ccccc4)c4ccccc4)C(C)=C1C3(C)C)[C@]1(OC(C)=O)CO[C@@H]1C[C@@H]2O` [Paclitaxel, paclitaxel, reference compound], the “Log10 LC50, Range” value [15] is reported as 0.45 and the “Log10 LC50” value [16] is reported as over −4.00 molar.
